Source: PMC9775191, “A Subset Screen of the Compounds Australia Scaffold Library Identifies 7-Acylaminodibenzoxazepinones as Potent and Selective Hits for Anti-Giardia Drug Discovery” (Biomedicines, 2022)

tested on: G. duodenalis BRIS/91/HEPU/1279; test: Primary Giardia screen at 10 µM (live-cell imaging, automated counting); assay type: cell-based, Giardia duodenalis; conditions: 48 h
How it was run: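 Singlicate, 10 μM final, 0.2% DMSO; sealed chambers, 3% O2/5% CO2/N2. Counts by live-cell imaging at 24 h and 48 h. % growth vs vehicle, media background subtracted; Z' per plate.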

Row | SMILES | Average % Inhibition 48h
1 | Cc1cc2[nH]c(C(=O)Nc3ccccc3C)c(CN3CCOCC3)c2s1 [SN00798525, Cc1cc2[nH]c(C(=O)Nc3ccccc3C)c(CN3CCOCC3)c2s1] | > 90%

same assay, conditions: 48 h, first singlicate assay

Row | SMILES | % Inhibition n=1 48h
2 | COc1ccc(N2C(=O)c3ccncc3C2=O)c(OC)c1 [SN00807767] | 28.6%
3 | CN(C)C(=O)N1CCN(Cc2nc3c(cnn3C)c(=O)[nH]2)CC1 [SN00807792] | 0.0%
4 | Cn1ncc2c(=O)[nH]c(CN3CCN(c4cnccn4)CC3)nc21 [SN00807797] | 0.0%
5 | Cc1ccc(C(=O)N2CCCN(S(C)(=O)=O)CC2)c(=O)[nH]1 [SN00807837] | 19.8%
6 | O=C(CSc1ccccc1)NCC1(N2CCCCC2)CCOCC1 [SN00807846] | 1.8%
7 | Cc1nnc2n1CCN(C(=O)c1cnc(-c3ccccc3)s1)C2 [SN00807889] | 22.7%
8 | Cc1ncc2c(n1)CN(C(C)c1nnc(-c3ccccc3)o1)CC2 (stereo not shown) [SN00807918] | 13.7%
9 | CCc1ncc2c(n1)CN(Cc1csc(-c3ncccn3)n1)CC2 [SN00807940] | 9.1%
10 | Cc1ncc2c(n1)CN(C(C)c1nc(-c3cccs3)no1)CC2 (stereo not shown) [SN00807951] | 13.5%
11 | Cc1oc(-c2ccco2)nc1CN1CCc2cnc(C(C)C)nc2C1 [SN00807954] | 0.1%

same assay, conditions: Giardia duodenalis, 24 h, first singlicate assay, read-out: % Inhibition n=1 24h

Row | SMILES | inhibition at 10 µM
12 | Cc1cc2[nH]c(C(=O)Nc3ccccc3C)c(CN3CCOCC3)c2s1 [SN00798525, Cc1cc2[nH]c(C(=O)Nc3ccccc3C)c(CN3CCOCC3)c2s1] | 91.4%

same assay, conditions: Giardia duodenalis, 24 h, re-assessment, read-out: % Inhibition n=2 24h

Row | SMILES | inhibition at 10 µM
13 | Cc1cc2[nH]c(C(=O)Nc3ccccc3C)c(CN3CCOCC3)c2s1 [SN00798525, Cc1cc2[nH]c(C(=O)Nc3ccccc3C)c(CN3CCOCC3)c2s1] | 97.9%

same assay, conditions: Giardia duodenalis, 24 h, read-out: Average % Inhibition 24h

Row | SMILES | inhibition at 10 µM
14 | Cc1cc2[nH]c(C(=O)Nc3ccccc3C)c(CN3CCOCC3)c2s1 [SN00798525, Cc1cc2[nH]c(C(=O)Nc3ccccc3C)c(CN3CCOCC3)c2s1] | 94.7%

same assay, conditions: Giardia duodenalis, 48 h, first singlicate assay, read-out: % Inhibition n=1 48h

Row | SMILES | inhibition at 10 µM
15 | Cc1cc2[nH]c(C(=O)Nc3ccccc3C)c(CN3CCOCC3)c2s1 [SN00798525, Cc1cc2[nH]c(C(=O)Nc3ccccc3C)c(CN3CCOCC3)c2s1] | 96.5%

same assay, conditions: Giardia duodenalis, 48 h, re-assessment, read-out: % Inhibition n=2 48h

Row | SMILES | inhibition at 10 µM
16 | Cc1cc2[nH]c(C(=O)Nc3ccccc3C)c(CN3CCOCC3)c2s1 [SN00798525, Cc1cc2[nH]c(C(=O)Nc3ccccc3C)c(CN3CCOCC3)c2s1] | 98.8%

same assay, conditions: Giardia duodenalis, 48 h, read-out: Average % Inhibition 48h

Row | SMILES | inhibition at 10 µM
17 | Cc1cc2[nH]c(C(=O)Nc3ccccc3C)c(CN3CCOCC3)c2s1 [SN00798525, Cc1cc2[nH]c(C(=O)Nc3ccccc3C)c(CN3CCOCC3)c2s1] | 97.6%

tested on: Neonatal foreskin fibroblast (NFF) cells; test: Mammalian cell cytotoxicity assay (sulforhodamine B); assay type: cell-based, human; conditions: Homo sapiens, NFF, Table S2; max 10 µM; read-out: NFF IC50
Protocol: The selectivity of compounds of interest was assessed against NFF cells. Assays were performed using sulforhodamine B and included media only, negative (no compound, no DMSO), and vehicle (DMSO) controls as previously described. A chloroquine control plate was included in each assay. […] Repurchased SN00797640 was tested in dose–response from 100 µM against NFF. Selectivity indices (SI) were calculated by dividing mammalian cell IC50 values by G. duodenalis BRIS/91/HEPU/1279 IC50 values.

Row | SMILES | IC50
18 | Cc1cc2[nH]c(C(=O)Nc3ccccc3C)c(CN3CCOCC3)c2s1 [SN00798525, Cc1cc2[nH]c(C(=O)Nc3ccccc3C)c(CN3CCOCC3)c2s1] | > 10 µM

tested on: Escherichia coli (ATCC 25922); test: Anti-bacterial activity assay; assay type: cell-based; conditions: Escherichia coli, ATCC25922, 50 µM; read-out: Bacterial Inhibition E. coli
Protocol: (§1) The activity of compounds against methicillin resistant Staphylococcus aureus (ATCC 43300), Escherichia coli (ATCC 25922), Acinetobacter baumannii (ATCC 19606) and Klebsiella pneumoniae (ATCC 700603) was assessed at 50 µM in duplicate as previously described. In brief, mid-log phase bacteria cultures were added to 384-well microtiter plate wells containing compound to final cell density of 5 × 10^5 CFU/mL in 50 µL. Plates were then covered and incubated at 37 °C for 18 h without shaking. Inhibition of bacterial growth was determined by measuring absorbance at 600 nm (Tecan M1000 Pro monochromator plate reader) and calculating percentage growth inhibition relative to the negative media and bacteria without inhibitors. Vancomycin hydrochloride (Sigma-Aldrich an affiliate of Merck KGaA, Darmstadt, Germany, #861987) and colistin sulfate (Sigma-Aldrich an affiliate of Merck KGaA, Darmstadt, Germany, C4461) were on each plate as positive controls for Gram-positive (S. aureus) and Gram-negative (E. coli, A. baumannii and K. pneumoniae) bacteria, respectively.

Row | SMILES | inhibition at 50 µM
19 | Cc1cc2[nH]c(C(=O)Nc3ccccc3C)c(CN3CCOCC3)c2s1 [SN00798525, Cc1cc2[nH]c(C(=O)Nc3ccccc3C)c(CN3CCOCC3)c2s1] | -0.27%

tested on: methicillin resistant Staphylococcus aureus (ATCC 43300); test: Anti-bacterial activity assay; assay type: cell-based; conditions: Staphylococcus aureus, ATCC43300, 50 µM; read-out: Bacterial Inhibition S. aureus
Protocol: as §1

Row | SMILES | inhibition at 50 µM
20 | Cc1cc2[nH]c(C(=O)Nc3ccccc3C)c(CN3CCOCC3)c2s1 [SN00798525, Cc1cc2[nH]c(C(=O)Nc3ccccc3C)c(CN3CCOCC3)c2s1] | 22.2%

tested on: Acinetobacter baumannii (ATCC 19606); test: Anti-bacterial activity assay; assay type: cell-based; conditions: ATCC19606, 50 µM
Protocol: as §1

Row | SMILES | inhibition at 50 µM
21 | Cc1cc2[nH]c(C(=O)Nc3ccccc3C)c(CN3CCOCC3)c2s1 [SN00798525, Cc1cc2[nH]c(C(=O)Nc3ccccc3C)c(CN3CCOCC3)c2s1] | 4.92%

tested on: Klebsiella pneumoniae (ATCC 700603); test: Anti-bacterial activity assay; assay type: cell-based; conditions: ATCC700603, 50 µM, read-out: Bacterial Inhibition K. pneumoniae
Protocol: as §1

Row | SMILES | inhibition at 50 µM
22 | Cc1cc2[nH]c(C(=O)Nc3ccccc3C)c(CN3CCOCC3)c2s1 [SN00798525, Cc1cc2[nH]c(C(=O)Nc3ccccc3C)c(CN3CCOCC3)c2s1] | 6.11%
